Experiments:
[1] = test system: mice pain response induced by hot plate; experiment: Mice pain response induced by hot plate; type: in vivo, ICR mice; details: for pain thresholds of the thermal-stimulus mice, in words: compared with the model group; for Pain threshold: hot plate 55°C
Method in brief: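 Female ICR mice (20±2 g) dosed intragastrically for 7 consecutive days. Latency to hind-paw licking on a 55±0.5° C hot plate measured at 30, 60, 90 and 120 min after the last dose, with a 60 s cap. Mice with baseline latency <5 s or >30 s, or jumping, excluded.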

[2] = test system: mice with inflammatory pain; experiment: Pain threshold of mice with inflammatory pain (complete Freund's adjuvant); type: in vivo, SD mice; details: for pain threshold of the mice with inflammatory pain, in words: compared with the model group; for Pain threshold: complete Freund's adjuvant paw model
[3] = test system: reserpine-induced mice migraine; experiment: Reserpine-induced mice migraine; type: in vivo, ICR mice; details: for blood coagulation time, in words / level of 5-HT in the brain tissue, in words / times of the tail suspension activity, in words: compared with the model group; for Blood coagulation time: reserpine 0.2 mg/kg sc mice, 1 h after final administration; for brain tissue 5-HT / Times of tail suspension (struggling times within 2 min): reserpine mice; for Times of tail suspension (struggling times within 2 min): 9th day
[4] = test system: ulcerative colitis mice; experiment: Mice ulcerative colitis (DSS); type: in vivo, BALB/c mice; details: for Total times of hematochezia within the four periods / Colon length / IL-1 content: DSS mice; for Colon length: four periods; for IL-1 content: serum, ELISA; for IL-1 content, in words / colon length, in words / total times of hematochezia, in words: compared with the model group
[5] = test system: mice writhing caused by acetic acid; experiment: Mice writhing caused by acetic acid; details: for Writhing times: 1 h before 0.7% acetic acid ip, within 20 min; for Latent time: time to first writhing; for Inhibition ratio: writhing inhibition
Procedure: Each compound was prepared into a suspension by 0.5% sodium carboxymethylcellulose respectively, and then set according to the dose, and each administration group was administered intragastrically; the model group was administered intragastrically an equal volume of 0.5% sodium carboxymethylcellulose.
Mice were intraperitoneally injected with acetic acid to cause a large area and more lasting painful stimuli in deep enterocoelia, causing mice to produce writhing responses. After being administered for 1 h, each dose group was intraperitoneally injected with 0.7% acetic acid-normal saline solution (0.1 ml/10 g).
The time (pain latent time) that the mice started to appear writhing after being intraperitoneally injected with acetic acid was recorded.
The writhing response times of each mouse within 20 min were recorded after injecting acetic acid to cause pain, and then, the writhing inhibition ratio of each administration group was calculated.
Writhing inhibition ratio = [(writhing times of the control group -writhing times of the administration group)/writhing times of the control group] × 100%
Experimental data is shown by x±s and subjected to variance analysis by SPSS 15.0 software.

[6] = high dose 30 mg/kg ig 7 d, 30 min after final administration
[7] = high dose 30 mg/kg ig 7 d, 60 min
[8] = high dose 30 mg/kg ig 7 d, 90 min
[9] = high dose 30 mg/kg ig 7 d, 120 min
[10] = low dose 7.5 mg/kg ig 7 d, 30 min after final administration
[11] = low dose 7.5 mg/kg ig 7 d, 60 min
[12] = low dose 7.5 mg/kg ig 7 d, 90 min
[13] = low dose 7.5 mg/kg ig 7 d, 120 min
[14] = middle dose 15 mg/kg ig 7 d, 30 min after final administration
[15] = middle dose 15 mg/kg ig 7 d, 60 min
[16] = middle dose 15 mg/kg ig 7 d, 90 min
[17] = middle dose 15 mg/kg ig 7 d, 120 min
[18] = high dose 30 mg/kg ig once per day, 0 d
[19] = high dose 30 mg/kg ig once per day, 1 d
[20] = high dose 30 mg/kg ig once per day, 3 d
[21] = high dose 30 mg/kg ig once per day, 7 d
[22] = low dose 7.5 mg/kg ig once per day, 0 d
[23] = low dose 7.5 mg/kg ig once per day, 1 d
[24] = low dose 7.5 mg/kg ig once per day, 3 d
[25] = low dose 7.5 mg/kg ig once per day, 7 d
[26] = middle dose 15 mg/kg ig once per day, 0 d
[27] = middle dose 15 mg/kg ig once per day, 1 d
[28] = middle dose 15 mg/kg ig once per day, 3 d
[29] = middle dose 15 mg/kg ig once per day, 7 d

For `Cn1c(C(=O)N2CCC(C(=O)Nc3cccc(Cl)c3)CC2)cc2ccccc21` [MAGLZ-II-18 (c)], the “pain thresholds of the thermal-stimulus mice, in words” value [1] was “significantly extend”, the Pain threshold [1, 6] was 29.23 ± 7.95 s and the Pain threshold [1, 7] was 30.24 ± 7.80 s. For the same compound, the Pain threshold [1, 8] was 30.66 ± 8.35 s, the Pain threshold [1, 9] was 29.87 ± 7.43 s and the Pain threshold [1, 10] was 23.98 ± 6.89 s. It also gave a Pain threshold [1, 11] of 24.75 ± 6.91 s, a Pain threshold [1, 12] of 25.16 ± 8.87 s and a Pain threshold [1, 13] of 24.28 ± 7.17 s. The Pain threshold [1, 14] was 26.82 ± 7.99 s, the Pain threshold [1, 15] was 28.52 ± 6.18 s and the Pain threshold [1, 16] was 28.66 ± 8.73 s. For the same compound, the Pain threshold [1, 17] was 27.88 ± 7.74 s, the “pain threshold of the mice with inflammatory pain, in words” value [2] was “significantly extend” and the Pain threshold [2, 18] was 12.85±2.09^∗ s. The Pain threshold [2, 19] was 6.44±0.92^∗ s, the Pain threshold [2, 20] was 8.17±1.14^∗ s and the Pain threshold [2, 21] was 9.05±0.84^∗ s. For the same compound, the Pain threshold [2, 22] was 12.75±2.46^∗ s, the Pain threshold [2, 23] was 6.36±0.89^∗ s and the Pain threshold [2, 24] was 7.98±1.21^∗ s. The Pain threshold [2, 25] was 8.95±0.67^∗ s, the Pain threshold [2, 26] was 12.86±2.07^∗ s and the Pain threshold [2, 27] was 6.41±0.91^∗ s. For the same compound, the Pain threshold [2, 28] was 8.10±1.30^∗ s, the Pain threshold [2, 29] was 8.99±0.92^∗ s and the “blood coagulation time, in words” value [3] was “significantly extend”. The “level of 5-HT in the brain tissue, in words” value [3] was “significantly increase”, the “times of the tail suspension activity, in words” value [3] was “significantly increase” and the Blood coagulation time ([3]; high dose 30 mg/kg ig 10 d) was 237.13±28.75 S. The Blood coagulation time ([3]; low dose 7.5 mg/kg ig 10 d) was 148.00±30.23 S, the Blood coagulation time ([3]; middle dose 15 mg/kg ig 10 d) was 198.63±21.36 S and the “brain tissue 5-HT” value ([3]; high dose 30 mg/kg ig 10 d) was 1.79 ± 0.32 nmol/g. For the same compound, the “Times of tail suspension (struggling times within 2 min)” value (from here on “Times of tail suspension”) ([3]; high dose 30 mg/kg ig) was 15.88±3.8, the “brain tissue 5-HT” value ([3]; low dose 7.5 mg/kg ig 10 d) was 1.14 ± 0.22 nmol/g and the “Times of tail suspension” value ([3]; low dose 7.5 mg/kg ig) was 10.13±2.3. The “brain tissue 5-HT” value ([3]; middle dose 15 mg/kg ig 10 d) was 1.37 ± 0.34 nmol/g, the “Times of tail suspension” value ([3]; middle dose 15 mg/kg ig) was 12.75±2.6 and the “Total times of hematochezia within the four periods” value ([4]; high dose 30 mg/kg ig) was 31.80±6.6. The Colon length ([4]; high dose 30 mg/kg ig) was 6.65±0.67 cm, the IL-1 content ([4]; high dose 30 mg/kg ig) was 45.10 ± 8.88 pg/mL and the “Total times of hematochezia within the four periods” value ([4]; low dose 7.5 mg/kg ig) was 43.10±7.59. The Colon length ([4]; low dose 7.5 mg/kg ig) was 6.25±1.17 cm, the IL-1 content ([4]; low dose 7.5 mg/kg ig) was 48.08 ± 13.18 pg/mL and the “Total times of hematochezia within the four periods” value ([4]; middle dose 15 mg/kg ig) was 43.20±5.31. For the same compound, the Colon length ([4]; middle dose 15 mg/kg ig) was 6.47±0.71 cm, the IL-1 content ([4]; middle dose 15 mg/kg ig) was 44.09 ± 9.13 pg/mL and the “IL-1 content, in words” value [4] was “decrease”. For the same compound, the “colon length, in words” value [4] was “significantly increase”, the “total times of hematochezia, in words” value [4] was “reduce” and the “latent time, in words” value ([5]; compared with the model group) was “extend”. For the same compound, the “mice writhing times caused by acetic acid, in words” value ([5]; compared with the model group) was “significantly decrease”, the Writhing times ([5]; high dose 30 mg/kg ig) was 19.9±12.2 and the Latent time ([5]; high dose 30 mg/kg ig) was 373.6 ± 114.0 s. The Inhibition ratio ([5]; high dose 30 mg/kg ig) was 49.4%, the Writhing times ([5]; low dose 7.5 mg/kg ig) was 28.3±11.9 and the Latent time ([5]; low dose 7.5 mg/kg ig) was 263.5 ± 77.7 s. For the same compound, the Inhibition ratio ([5]; low dose 7.5 mg/kg ig) was 28.0%, the Writhing times ([5]; middle dose 15 mg/kg ig) was 24.9±12.2 and the Latent time ([5]; middle dose 15 mg/kg ig) was 312.7 ± 90.9 s. For the same compound, the Inhibition ratio ([5]; middle dose 15 mg/kg ig) was 36.6%.

In the case of `O=C(Nc1cccc(Cl)c1)C1CCN(C(=O)c2cc3ccccc3[nH]2)CC1` [MAGLZ-II-18], the “pain thresholds of the thermal-stimulus mice, in words” value [1] is reported as “significantly extend”, the Pain threshold [1, 6] is reported as 26.73 ± 7.37 s and the Pain threshold [1, 7] is reported as 27.22 ± 7.29 s. For the same compound, the Pain threshold [1, 8] was 27.86 ± 7.93 s, the Pain threshold [1, 9] was 27.62 ± 10.01 s and the Pain threshold [1, 10] was 26.33 ± 7.52 s. For the same compound, the Pain threshold [1, 11] was 26.74 ± 7.05 s, the Pain threshold [1, 12] was 27.16 ± 7.32 s and the Pain threshold [1, 13] was 26.64 ± 10.03 s. It also gave a Pain threshold [1, 14] of 26.41 ± 7.53 s, a Pain threshold [1, 15] of 27.09 ± 7.53 s and a Pain threshold [1, 16] of 27.58 ± 7.71 s. For the same compound, the Pain threshold [1, 17] was 27.38 ± 9.97 s, the “pain threshold of the mice with inflammatory pain, in words” value [2] was “significantly extend” and the Pain threshold [2, 18] was 12.85±2.26^∗∗ s. For the same compound, the Pain threshold [2, 19] was 6.95±0.85^∗∗ s, the Pain threshold [2, 20] was 8.49±1.15^∗∗ s and the Pain threshold [2, 21] was 9.62±0.93^∗∗ s. The Pain threshold [2, 22] was 12.73±2.43^∗ s, the Pain threshold [2, 23] was 6.39±0.91^∗ s and the Pain threshold [2, 24] was 8.12±1.29^∗ s. For the same compound, the Pain threshold [2, 25] was 9.16±1.17^∗ s, the Pain threshold [2, 26] was 12.86±2.25^∗∗ s and the Pain threshold [2, 27] was 6.62±0.69^∗∗ s. The Pain threshold [2, 28] was 8.24±0.73^∗∗ s, the Pain threshold [2, 29] was 9.51±1.15^∗∗ s and the “blood coagulation time, in words” value [3] was “significantly extend”. For the same compound, the “level of 5-HT in the brain tissue, in words” value [3] was “significantly increase”, the “times of the tail suspension activity, in words” value [3] was “significantly increase” and the Blood coagulation time ([3]; high dose 30 mg/kg ig 10 d) was 241.5 ± 41.63 S. For the same compound, the Blood coagulation time ([3]; low dose 7.5 mg/kg ig 10 d) was 186.5±51.71 S, the Blood coagulation time ([3]; middle dose 15 mg/kg ig 10 d) was 212.63±46.02 S and the “brain tissue 5-HT” value ([3]; high dose 30 mg/kg ig 10 d) was 2.08 ± 0.59 nmol/g. The “Times of tail suspension” value ([3]; high dose 30 mg/kg ig) was 16.51±4.38, the “brain tissue 5-HT” value ([3]; low dose 7.5 mg/kg ig 10 d) was 1.13 ± 0.45 nmol/g and the “Times of tail suspension” value ([3]; low dose 7.5 mg/kg ig) was 11.88±4.02. For the same compound, the “brain tissue 5-HT” value ([3]; middle dose 15 mg/kg ig 10 d) was 1.54 ± 0.54 nmol/g, the “Times of tail suspension” value ([3]; middle dose 15 mg/kg ig) was 13.75±4.56 and the “Total times of hematochezia within the four periods” value ([4]; high dose 30 mg/kg ig) was 32.80±4.37. The Colon length ([4]; high dose 30 mg/kg ig) was 6.73±0.63 cm, the IL-1 content ([4]; high dose 30 mg/kg ig) was 46.98 ± 7.56 pg/mL and the “Total times of hematochezia within the four periods” value ([4]; low dose 7.5 mg/kg ig) was 32.80±4.64. For the same compound, the Colon length ([4]; low dose 7.5 mg/kg ig) was 6.44±0.64 cm, the IL-1 content ([4]; low dose 7.5 mg/kg ig) was 46.15 ± 9.65 pg/mL and the “Total times of hematochezia within the four periods” value ([4]; middle dose 15 mg/kg ig) was 33.90±4.77. For the same compound, the Colon length ([4]; middle dose 15 mg/kg ig) was 6.37±0.39 cm, the IL-1 content ([4]; middle dose 15 mg/kg ig) was 49.01 ± 5.65 pg/mL and the “IL-1 content, in words” value [4] was “decrease”. The “colon length, in words” value [4] was “significantly increase”, the “total times of hematochezia, in words” value [4] was “reduce” and the Writhing times ([5]; high dose 30 mg/kg ig) was 15.8±15.3. The Latent time ([5]; high dose 30 mg/kg ig) was 410.9 ± 186.5 s, the Inhibition ratio ([5]; high dose 30 mg/kg ig) was 59.8% and the Writhing times ([5]; low dose 7.5 mg/kg ig) was 25.0±13.5. For the same compound, the Latent time ([5]; low dose 7.5 mg/kg ig) was 318.7 ± 120.2 s, the Inhibition ratio ([5]; low dose 7.5 mg/kg ig) was 36.4% and the Writhing times ([5]; middle dose 15 mg/kg ig) was 21.8±12.4. For the same compound, the Latent time ([5]; middle dose 15 mg/kg ig) was 381.4 ± 127.1 s and the Inhibition ratio ([5]; middle dose 15 mg/kg ig) was 44.5%.
